Patent US10144947B2, “Method for detecting, identifying and enumerating micro-organisms in a porous support dry-impregnated with a dehydrated reaction medium” (BIOMÉRIEUX, priority 2014, dated 2018)
Where two headings read alike, the source gives them in different places. Each block holds one compound with its values, some of them ahead of it.

Experiments:
[1] = test system: Pseudomonas aeruginosa API 9405063; test: MIC of ciprofloxacin for the strain tested; type: cell-based; settings: P. aeruginosa API 9405063; listed as Ci
[2] = test system: Pseudomonas aeruginosa API 9405061; test: MIC of ciprofloxacin for the strain tested; type: cell-based; settings: P. aeruginosa API 9405061
[3] = test system: Proteus mirabilis API 8803080; test: MIC of ciprofloxacin for the strain tested; type: cell-based; settings: listed as Ci
[4] = test system: Proteus mirabilis API 9406037; test: MIC of ciprofloxacin for the strain tested; type: cell-based; settings: listed as Ci
[5] = test system: Proteus mirabilis API 8803080; test: Growth on MH2 or ChromID CPS3 with 1.5 mg/l ciprofloxacin, agar medium or impregnated porous support; type: cell-based; set-up: key to growth on MH2 Agar medium + 1.5 mg/l Ci / growth on Impregnation of porous support with MH2 + 1.5 mg/l Ci / growth on ChromID CPS3 Agar medium + 1.5 mg/l Ci / growth on Impregnation of porous support with ChromID CPS3 + 1.5 mg/l Ci: ++: grow; −−: do not grow
Procedure: (§1) To produce the agar media, a liter of water is added to the test specimen of the dry medium, i.e. 38.3 g for ChromID CPS3 and 41.57 g for the Muller Hinton 2 medium. The dry medium is then dissolved with magnetic stirring, brought to the boil then sterilized by autoclaving. […]. The whole thing is then mixed together in a Turbula®. The porous supports are then impregnated with the culture media powders as described above and sterilized by gamma radiation between 10 and 17 kGy.

[6] = test system: Proteus mirabilis API 9406037; test: as above; type: cell-based; set-up: key to growth on MH2 Agar medium + 1.5 mg/l Ci / growth on Impregnation of porous support with MH2 + 1.5 mg/l Ci / growth on ChromID CPS3 Agar medium + 1.5 mg/l Ci / growth on Impregnation of porous support with ChromID CPS3 + 1.5 mg/l Ci: ++: grow; −−: do not grow
Procedure: as §1

[7] = test system: Pseudomonas aeruginosa API 7509005; test: as above; type: cell-based; set-up: key to growth on MH2 Agar medium + 1.5 mg/l Ci / growth on Impregnation of porous support with MH2 + 1.5 mg/l Ci / growth on ChromID CPS3 Agar medium + 1.5 mg/l Ci / growth on Impregnation of porous support with ChromID CPS3 + 1.5 mg/l Ci: ++: grow; −−: do not grow
Procedure: as §1

[8] = test system: Pseudomonas aeruginosa API 9405061; test: as above; type: cell-based; set-up: key to growth on MH2 Agar medium + 1.5 mg/l Ci / growth on Impregnation of porous support with MH2 + 1.5 mg/l Ci / growth on ChromID CPS3 Agar medium + 1.5 mg/l Ci / growth on Impregnation of porous support with ChromID CPS3 + 1.5 mg/l Ci: ++: grow; −−: do not grow
Procedure: as §1

[9] = test system: Proteus mirabilis API 8803099; test: as above; type: cell-based; set-up: key to growth on MH2 Agar medium + 1.5 mg/l Ci / growth on Impregnation of porous support with MH2 + 1.5 mg/l Ci / growth on ChromID CPS3 Agar medium + 1.5 mg/l Ci / growth on Impregnation of porous support with ChromID CPS3 + 1.5 mg/l Ci: ++: grow; −−: do not grow
Procedure: as §1

[10] = test system: Proteus vulgaris API 8803017; test: as above; type: cell-based; set-up: key to growth on MH2 Agar medium + 1.5 mg/l Ci / growth on Impregnation of porous support with MH2 + 1.5 mg/l Ci / growth on ChromID CPS3 Agar medium + 1.5 mg/l Ci / growth on Impregnation of porous support with ChromID CPS3 + 1.5 mg/l Ci: ++: grow; −−: do not grow
Procedure: as §1

[11] = test system: Pseudomonas aeruginosa API 9405063; test: as above; type: cell-based; set-up: key to growth on MH2 Agar medium + 1.5 mg/l Ci / growth on Impregnation of porous support with MH2 + 1.5 mg/l Ci / growth on ChromID CPS3 Agar medium + 1.5 mg/l Ci / growth on Impregnation of porous support with ChromID CPS3 + 1.5 mg/l Ci: ++: grow; −−: do not grow
Procedure: as §1

[12] = test system: Pseudomonas aeruginosa API 9410075; test: as above; type: cell-based; set-up: key to growth on MH2 Agar medium + 1.5 mg/l Ci / growth on Impregnation of porous support with MH2 + 1.5 mg/l Ci / growth on ChromID CPS3 Agar medium + 1.5 mg/l Ci / growth on Impregnation of porous support with ChromID CPS3 + 1.5 mg/l Ci: ++: grow; −−: do not grow
Procedure: as §1

[13] = test system: Pseudomonas aeruginosa API 7509005; test: MIC of ciprofloxacin for the strain tested; type: cell-based; settings: P. aeruginosa API 7509005; listed as Ci
[14] = test system: Proteus vulgaris API 8803017; test: MIC of ciprofloxacin for the strain tested; type: cell-based; settings: API8803017
[15] = test system: Pseudomonas aeruginosa API 9410075; test: MIC of ciprofloxacin for the strain tested; type: cell-based; settings: P. aeruginosa API 9410075; listed as Ci
[16] = test system: Proteus mirabilis API 8803099; test: MIC of ciprofloxacin for the strain tested; type: cell-based
[17] = test system: Pseudomonas aeruginosa ATCC 27853; test: Growth (colony count) on ChromID CPS3 with 1 mg/l imipenem, agar medium or impregnated porous support; type: cell-based; settings: for CFU/ml, ChromID CPS3 with 1 mg/l imipenem: starting concentration 10^3 CFU/ml; for CFU, ChromID CPS3 with 1 mg/l imipenem: starting concentration 10^5 CFU/ml
Procedure: (§2) To produce the agar media, a liter of water is added to the test specimen of the dry medium, i.e. 38.3 g for ChromID CPS3. The dry medium is then dissolved with stirring, brought to the boil then sterilized by autoclaving. After cooling the agar medium to 55° C., the imipenem sterilized by filtration is added at a concentration of 1 mg/l. To carry out impregnation according to the present invention of the dry medium Chrom ID CPS3, a test specimen of the dry medium corresponding to the manufacture of one liter of medium is taken, i.e. 26 g, to which test specimen xanthan (20 g) and imipenem […] are added. All the constituents are then mixed together in a Turbula®. The porous supports are then impregnated by the culture media powder produced as described above and sterilized by gamma radiation between 10 and 17 kGy.

[18] = test system: E. coli ATCC 25922; test: as above; type: cell-based, Escherichia coli
Procedure: as §2

[19] = test system: E. coli ATCC 25922; test: MIC of imipenem for the strain used; type: cell-based; settings: Escherichia coli, ATCC25922, as stated in the conclusion
[20] = test system: Pseudomonas aeruginosa ATCC 27853; test: MIC of imipenem for the strain used; type: cell-based; settings: ATCC27853, Pseudomonas aeruginosa ATCC 27853, as stated in the conclusion
[21] = ChromID CPS3 agar medium, 1.5 mg/l ciprofloxacin
[22] = MH2 agar medium, 1.5 mg/l ciprofloxacin
[23] = MH2 and ChromID CPS3, agar and porous support, 1.5 mg/l ciprofloxacin
[24] = porous support impregnated with ChromID CPS3, 1.5 mg/l ciprofloxacin
[25] = porous support impregnated with MH2, 1.5 mg/l ciprofloxacin
[26] = all the agar or impregnated media, ciprofloxacin 1.5 g/1 [sic]
[27] = porous support according to the invention

MIC [1]: 6 to 8 µg/mL
MIC [2]: less than 1.5 mg/l
MIC ([2]; listed as Ci): 0.25 µg/mL
MIC [3]: 0.38 to 0.5 µg/mL
MIC [4]: 8 to 12 µg/mL
MIC [13]: 0.25 µg/mL
MIC [14]: < 1.5 µg/mL
MIC [15]: >32 µg/mL
MIC [16]: less than 1.5 mg/l
MIC ([16]; listed as Ci): 0.032 µg/mL
Structure (SMILES): O=C(O)c1cn(C2CC2)c2cc(N3CCNCC3)c(F)cc2c1=O [ciprofloxacin, Ciprofloxacin]
growth on ChromID CPS3 Agar medium + 1.5 mg/l Ci [5, 21]: −−
growth on MH2 Agar medium + 1.5 mg/l Ci [5, 22]: −−
growth on agar media and impregnated porous supports with ciprofloxacin (in words) [5, 23]: do not grow
growth on Impregnation of porous support with ChromID CPS3 + 1.5 mg/l Ci [5, 24]: −−
growth on Impregnation of porous support with MH2 + 1.5 mg/l Ci [5, 25]: −−
growth on ChromID CPS3 Agar medium + 1.5 mg/l Ci [6, 21]: ++
growth on MH2 Agar medium + 1.5 mg/l Ci [6, 22]: ++
growth on agar media and impregnated porous supports with ciprofloxacin (in words) [6, 26]: grow
growth on Impregnation of porous support with ChromID CPS3 + 1.5 mg/l Ci [6, 24]: ++
growth on Impregnation of porous support with MH2 + 1.5 mg/l Ci [6, 25]: ++
growth on ChromID CPS3 Agar medium + 1.5 mg/l Ci [7, 21]: −−
growth on MH2 Agar medium + 1.5 mg/l Ci [7, 22]: −−
growth on agar media and impregnated porous supports with ciprofloxacin (in words) [7, 23]: do not grow
growth on Impregnation of porous support with ChromID CPS3 + 1.5 mg/l Ci [7, 24]: −−
growth on Impregnation of porous support with MH2 + 1.5 mg/l Ci [7, 25]: −−
growth on ChromID CPS3 Agar medium + 1.5 mg/l Ci [8, 21]: −−
growth on MH2 Agar medium + 1.5 mg/l Ci [8, 22]: −−
growth on agar media and impregnated porous supports with ciprofloxacin (in words) [8, 23]: do not grow
growth on Impregnation of porous support with ChromID CPS3 + 1.5 mg/l Ci [8, 24]: −−
growth on Impregnation of porous support with MH2 + 1.5 mg/l Ci [8, 25]: −−
growth on ChromID CPS3 Agar medium + 1.5 mg/l Ci [9, 21]: −−
growth on MH2 Agar medium + 1.5 mg/l Ci [9, 22]: −−
growth on agar media and impregnated porous supports with ciprofloxacin (in words) [9, 23]: do not grow
growth on Impregnation of porous support with ChromID CPS3 + 1.5 mg/l Ci [9, 24]: −−
growth on Impregnation of porous support with MH2 + 1.5 mg/l Ci [9, 25]: −−
growth on ChromID CPS3 Agar medium + 1.5 mg/l Ci [10, 21]: −−
growth on MH2 Agar medium + 1.5 mg/l Ci [10, 22]: −−
growth on agar media and impregnated porous supports with ciprofloxacin (in words) [10, 23]: do not grow
growth on Impregnation of porous support with ChromID CPS3 + 1.5 mg/l Ci [10, 24]: −−
growth on Impregnation of porous support with MH2 + 1.5 mg/l Ci [10, 25]: −−
growth on ChromID CPS3 Agar medium + 1.5 mg/l Ci [11, 21]: ++
growth on MH2 Agar medium + 1.5 mg/l Ci [11, 22]: ++
growth on agar media and impregnated porous supports with ciprofloxacin (in words) [11, 26]: grow
growth on Impregnation of porous support with ChromID CPS3 + 1.5 mg/l Ci [11, 24]: ++
growth on Impregnation of porous support with MH2 + 1.5 mg/l Ci [11, 25]: ++
growth on ChromID CPS3 Agar medium + 1.5 mg/l Ci [12, 21]: ++
growth on MH2 Agar medium + 1.5 mg/l Ci [12, 22]: ++
growth on agar media and impregnated porous supports with ciprofloxacin (in words) [12, 26]: grow
growth on Impregnation of porous support with ChromID CPS3 + 1.5 mg/l Ci [12, 24]: ++
growth on Impregnation of porous support with MH2 + 1.5 mg/l Ci [12, 25]: ++

MIC [19]: 0.12 µg/mL
MIC [20]: 2 µg/mL
Structure (SMILES): C[C@@H](O)[C@H]1C(=O)N2C(C(=O)O)=C(SCCN=CN)C[C@H]12 [imipenem]
CFU/ml, ChromID CPS3 with 1 mg/l imipenem ([17]; ChromID CPS3 agar): 677 CFU/ml
CFU, ChromID CPS3 with 1 mg/l imipenem ([17]; ChromID CPS3 agar): ≥300 colonies
CFU/ml, ChromID CPS3 with 1 mg/l imipenem [17, 27]: 453 CFU/ml
CFU, ChromID CPS3 with 1 mg/l imipenem [17, 27]: ≥300 colonies
CFU/ml, ChromID CPS3 with 1 mg/l imipenem ([18]; ChromID CPS3 agar, starting concentration 10^3 CFU/ml): 0 CFU/ml
CFU/ml, ChromID CPS3 with 1 mg/l imipenem ([18]; ChromID CPS3 agar, starting concentration 10^5 CFU/ml): 0 CFU/ml
CFU/ml, ChromID CPS3 with 1 mg/l imipenem ([18]; porous support according to the invention, starting concentration 10^3 CFU/ml): 0 CFU/ml
CFU/ml, ChromID CPS3 with 1 mg/l imipenem ([18]; porous support according to the invention, starting concentration 10^5 CFU/ml): 0 CFU/ml
